Values joined by “and” are separate entries in the source; they are usually repeats but may differ in a detail not shown here. Equal entries are not always repeated. Where two headings read alike, the source gives them in different places. One block for each molecule: values may come before it.
Columns and labels:
[1] = tested on: HER YVMA Ba/F3 cells containing a concurrent C805S mutation; experiment: Ba/F3 cell viability, concurrent C805S mutation; type: cell-based; details: HER YVMA Ba/F3 cells with concurrent C805S mutation
Calu-3 [2] = experiment: Caspase-3/7 activity, live-cell imaging; type: cell-based, human; details: Calu-3, live-cell imaging, 3 days
Calu-3 tumors [3] = experiment: TUNEL assay in Calu-3 tumors; type: in vivo, NCr nude mice; details: 50 mg/kg BID, 3 days dosing
[4] = tested on: WT EGFR vs all HER2 mutants Ba/F3 cells; experiment: Selectivity index from Ba/F3 IC50 ratios; type: cell-based; details: average over HER2 mutants
[5] = tested on: Ba/F3 cells HER2 M774delinsWLV; experiment: Ba/F3 cell viability; type: cell-based; details: read-out: IC50 (average ± SD)
Ba/F3 cells HER2 V777L = experiment: Ba/F3 cell viability; type: cell-based; details: read-out: IC50 (average ± SD)
[6] = Pharmacokinetic properties in mice; type: in vivo
H1781 = experiment: Cancer cell viability; type: cell-based, human; details: read-out: IC50 (average ± SD)
[7] = tested on: Ba/F3 cells harboring various HER2 exon 20 insertions or amplification; details: read-out: IC50 across all exon 20 mutants or amplification, cell growth
DFCI 315 [8] = experiment: AO/PI live/dead staining of tumor spheroids; type: cell-based, human; details: DFCI 315 tumor spheroids, 5 days
MCF7 = experiment: Cancer cell viability; type: cell-based, human; details: read-out: IC50 (average ± SD)
DFCI 429 = experiment: Patient-derived cancer cell viability; type: cell-based, human; details: read-out: IC50 (average ± SD)
A-431 = experiment: Cancer cell viability; type: cell-based, human; details: read-out: IC50 (average ± SD); A-431, epidermoid, EGFR amp, 72 h
BT-474 = experiment: Cancer cell viability; type: cell-based, human; details: read-out: IC50 (average ± SD)
HER2 [9] = target: T1, HER2 (Homo sapiens, UniProt P04626); details: Calu-3 cells
NCI-N87 = experiment: Cancer cell viability; type: cell-based, human; details: read-out: IC50 (average ± SD)
Ba/F3 cells HER2 S310F = experiment: Ba/F3 cell viability; type: cell-based; details: read-out: IC50 (average ± SD)
SKBR3 = experiment: Cancer cell viability; type: cell-based, human; details: read-out: IC50 (average ± SD)
[10] = tested on: Ba/F3 cells HER2 amplification; experiment: Ba/F3 cell viability; type: cell-based; details: read-out: IC50 (average ± SD)
Ba/F3 cells HER2 L755S = experiment: Ba/F3 cell viability; type: cell-based; details: read-out: IC50 (average ± SD)
Ba/F3 cells HER2 V862I = experiment: Ba/F3 cell viability; type: cell-based; details: read-out: IC50 (average ± SD)
WT HER2 = WT HER2 (Homo sapiens, UniProt P04626); details: purified kinase 5 nmol/L, 100 μmol/L ATP
Calu-3 tumors [11] = experiment: Calu-3 xenograft efficacy; type: in vivo; details: Calu-3 in NCr nude mice, oral, 39 days; JBJ-08-178-01 at 50 mg/kg BID
[12] = tested on: Ba/F3 cells HER2 P780_Y781insGSP; experiment: Ba/F3 cell viability; type: cell-based; details: read-out: IC50 (average ± SD)
[13] = tested on: Ba/F3 cells WT EGFR (+ rhEGF); experiment: Ba/F3 cell viability; type: cell-based; details: read-out: IC50 (average ± SD); Ba/F3 WT EGFR (+ rhEGF 10 ng/mL), 3 days
[14] = tested on: Ba/F3 cells HER2 A775_G776insYVMA; experiment: Ba/F3 cell viability; type: cell-based; details: read-out: IC50 (average ± SD)
HER2 [15] = target: T1, HER2; details: Calu-3 cells, in the presence of cycloheximide
DFCI 315 [16] = experiment: Patient-derived tumor spheroid viability; type: cell-based, human; details: read-out: IC50 (average ± SD); DFCI 315, NSCLC, HER2 ins, 6 days
[17] = tested on: Ba/F3 cells HER2 755_757LREdelinsRP; experiment: Ba/F3 cell viability; type: cell-based; details: read-out: IC50 (average ± SD)
[18] = tested on: Ba/F3 cells HER2 G776delinsVC; experiment: Ba/F3 cell viability; type: cell-based; details: read-out: IC50 (average ± SD)
H1819 = experiment: Cancer cell viability; type: cell-based; details: Homo sapiens, NCI-H1819, 72 h, read-out: IC50 (average ± SD)
Calu-3 [19] = experiment: Cancer cell viability; type: cell-based; details: Homo sapiens, Calu-3, 72 h, read-out: IC50 (average ± SD)
HER2 mutant lung cancer = details: phase II trial, patients with lung cancer harboring HER2 exon 20 mutations ref 34; cited from earlier work
[20] = Ba/F3 HER2 M774delinsWLV, 3 days
[21] = Ba/F3 HER2 amplification, 3 days
[22] = Ba/F3 HER2 P780_Y781insGSP, 3 days
[23] = Ba/F3 HER2 A775_G776insYVMA, 3 days
[24] = Ba/F3 HER2 G776delinsVC, 3 days

T1 sequence (P04626 23-1255): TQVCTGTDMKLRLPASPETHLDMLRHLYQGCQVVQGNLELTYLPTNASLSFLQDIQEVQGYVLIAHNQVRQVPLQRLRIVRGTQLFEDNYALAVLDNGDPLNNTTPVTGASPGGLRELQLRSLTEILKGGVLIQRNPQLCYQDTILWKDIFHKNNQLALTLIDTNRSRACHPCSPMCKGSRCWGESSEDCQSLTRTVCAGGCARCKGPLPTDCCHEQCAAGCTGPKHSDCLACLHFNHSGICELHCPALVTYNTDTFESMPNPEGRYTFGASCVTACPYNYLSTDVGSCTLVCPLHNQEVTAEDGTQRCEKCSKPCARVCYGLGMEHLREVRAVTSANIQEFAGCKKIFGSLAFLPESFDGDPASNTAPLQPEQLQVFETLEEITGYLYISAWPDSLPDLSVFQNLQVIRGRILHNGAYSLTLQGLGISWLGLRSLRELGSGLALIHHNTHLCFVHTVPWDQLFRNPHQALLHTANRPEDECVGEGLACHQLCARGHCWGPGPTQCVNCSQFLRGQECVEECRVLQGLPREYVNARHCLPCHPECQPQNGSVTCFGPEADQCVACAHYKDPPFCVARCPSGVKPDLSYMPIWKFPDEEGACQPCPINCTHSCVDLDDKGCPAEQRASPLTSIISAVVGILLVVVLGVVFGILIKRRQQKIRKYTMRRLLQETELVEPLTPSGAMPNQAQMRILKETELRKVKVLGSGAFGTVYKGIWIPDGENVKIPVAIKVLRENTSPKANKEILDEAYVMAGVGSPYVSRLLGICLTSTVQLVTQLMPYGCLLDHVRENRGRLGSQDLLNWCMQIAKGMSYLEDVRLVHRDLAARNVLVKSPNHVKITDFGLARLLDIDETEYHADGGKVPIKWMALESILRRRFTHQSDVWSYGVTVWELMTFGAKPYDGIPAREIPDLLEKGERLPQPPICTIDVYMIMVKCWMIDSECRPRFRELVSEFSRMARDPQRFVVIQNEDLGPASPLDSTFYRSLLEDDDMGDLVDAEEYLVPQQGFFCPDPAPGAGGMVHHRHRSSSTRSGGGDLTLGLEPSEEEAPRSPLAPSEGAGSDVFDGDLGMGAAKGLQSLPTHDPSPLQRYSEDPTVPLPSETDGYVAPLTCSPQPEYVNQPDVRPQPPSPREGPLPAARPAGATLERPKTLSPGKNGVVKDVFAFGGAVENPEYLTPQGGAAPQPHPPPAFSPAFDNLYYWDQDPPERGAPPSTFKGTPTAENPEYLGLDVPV
WT HER2, sequence (P04626 720-987 limits assumed): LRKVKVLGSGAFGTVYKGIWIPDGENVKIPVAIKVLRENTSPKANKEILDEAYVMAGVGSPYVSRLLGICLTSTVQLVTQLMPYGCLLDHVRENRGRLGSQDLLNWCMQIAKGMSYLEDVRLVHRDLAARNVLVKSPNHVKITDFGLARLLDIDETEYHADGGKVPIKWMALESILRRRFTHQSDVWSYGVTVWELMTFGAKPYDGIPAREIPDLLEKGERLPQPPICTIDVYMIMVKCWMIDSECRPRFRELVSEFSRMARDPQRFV

IC50 [5, 20]: 21 ± 12 nM
IC50 (Ba/F3 cells HER2 V777L; Ba/F3 HER2 V777L, 3 days): 2.71 ± 0.41 nM
AUCINF_obs ([6]; IV (2 mg/kg)): 323,166 min*ng/mL
AUClast ([6]; IV (2 mg/kg)): 317,601 min*ng/mL
CI_obs ([6]; IV (2 mg/kg)): 6.26 mL/min/kg
Cmax ([6]; IV (2 mg/kg)): 5.68 µM
MRTINF_obs ([6]; IV (2 mg/kg)): 1.42 h
T1/2 ([6]; IV (2 mg/kg)): 1.41 h
Tmax ([6]; IV (2 mg/kg)): 0.36 h
Vss_obs ([6]; IV (2 mg/kg)): 0.5 L/kg
AUCINF_obs ([6]; PO (10 mg/kg)): 243,219 min*ng/mL
AUClast ([6]; PO (10 mg/kg)): 166,787 min*ng/mL
CI_obs ([6]; PO (10 mg/kg)): 48.87 mL/min/kg
Cmax ([6]; PO (10 mg/kg)): 1.12 µM
F ([6]; PO (10 mg/kg)): 10%
T1/2 ([6]; PO (10 mg/kg)): 3.65 h
Tmax ([6]; PO (10 mg/kg)): 2.33 h
IC50 (H1781; H1781, NSCLC, HER2 ins, 72 h): 151 ± 52.7 nM
IC50 [7]: < 50 nM
IC50 (MCF7; MCF7, breast cancer, no ERBB mutation, 72 h): 967 ± 429 nM
IC50 (DFCI 429; DFCI 429, NSCLC, HER2 amp, 3 days): 252 ± 179 nM
IC50 (A-431): 378 ± 77.1 nM
IC50 (BT-474; BT-474, breast cancer, HER2 amp, 72 h): 43.7 ± 11.1 nM
IC50 (NCI-N87; NCI-N87, HER2 amp, 72 h): 1.2 nM
IC50 (Ba/F3 cells HER2 S310F; Ba/F3 HER2 S310F, 3 days): 41.5 ± 13.4 nM
IC50 (SKBR3; SKBR3, breast cancer, HER2 amp, 72 h): 79.4 ± 56.5 nM
IC50 [10, 21]: 15.3 ± 11.4 nM
IC50 (Ba/F3 cells HER2 L755S; Ba/F3 HER2 L755S, 3 days): 140 ± 45.3 nM
IC50 (Ba/F3 cells HER2 V862I; Ba/F3 HER2 V862I, 3 days): 284 ± 118 nM
inhibition of WT HER2 in biochemical inhibition assays (WT HER2): potently inhibited WT HER2
IC50 [12, 22]: 7.38 ± 2.66 nM
IC50 [13]: 368 ± 103 nM
IC50 [14, 23]: 13.6 ± 2.24 nM
IC50 (DFCI 315 [16]): 456 ± 117 nM
IC50 ([17]; Ba/F3 HER2 755_757LREdelinsRP, 3 days): 7.24 ± 2.28 nM
IC50 [18, 24]: 6.01 ± 2.94 nM
Compound: CCOc1cc2ncc(C#N)c(Nc3ccc(Oc4ccn5ncnc5c4)c(C)c3)c2cc1NC(=O)/C=C/CN(C)C [JBJ-08-178-01]
growth inhibition [1]: did not inhibit the growth
apoptosis (caspase-3/7) (Calu-3 [2]): rapid and greater degree of apoptosis compared with cells treated with poziotinib, neratinib, or tucatinib
cell apoptosis (TUNEL) (Calu-3 tumors [3]): significantly increased cell apoptosis compared with vehicle
Selectivity index (IC50 ratio = WT EGFR ÷ all HER2 mutants) [4]: 6.8 and 6.83
PI-positive dead cells (DFCI 315 [8]): significantly increased PI-positive dead cells
HER2 endocytosis (pHrodo fluorescence signal) (HER2 [9]): dramatic increase of fluorescence signal in the cytoplasm
tumor growth (Calu-3 tumors [11]): comparable tumor regression with neratinib
protein stability of HER2 (HER2 [15]): decreased protein stability of HER2 compared with vehicle

Compound: C=CC(=O)N1CCC[C@@H](n2nc(C(=O)Nc3ccc(CC(=O)N(C)C)c(C)c3C)c3c(N)ncnc32)C1 [TAS0728]
Selectivity index (IC50 ratio = WT EGFR ÷ all HER2 mutants) [4]: 0.48
IC50 [5, 20]: 894 ± 509 nM
IC50 (Ba/F3 cells HER2 V777L; Ba/F3 HER2 V777L, 3 days): 19.2 ± 12.2 nM
IC50 (Ba/F3 cells HER2 S310F; Ba/F3 HER2 S310F, 3 days): 238 ± 95 nM
IC50 [10, 21]: 288 ± 20.6 nM
IC50 (Ba/F3 cells HER2 L755S; Ba/F3 HER2 L755S, 3 days): 3760 ± 3080 nM
IC50 (Ba/F3 cells HER2 V862I; Ba/F3 HER2 V862I, 3 days): 1320 ± 506 nM
IC50 [12, 22]: 80.1 ± 27 nM
IC50 [13]: 399 ± 77.3 nM
IC50 [14, 23]: 256 ± 175 nM
IC50 [18, 24]: 626 ± 130 nM

IC50 ([5]; Mus musculus, BaF3, 72 h): 8.75 ± 3.74 nM
IC50 (Ba/F3 cells HER2 V777L; Mus musculus, BaF3, 72 h): 3.13 ± 0.21 nM
IC50 (H1781; Homo sapiens, NCI-H1781, 72 h): 169 ± 84.6 nM
IC50 (MCF7; Homo sapiens, MCF7, 72 h): 1970 nM
IC50 (DFCI 429; Homo sapiens, 72 h): 163 ± 153 nM
IC50 (A-431): 73.9 ± 60.9 nM
IC50 (BT-474; Homo sapiens, BT-474, 72 h): 175 ± 136 nM
IC50 (NCI-N87; Homo sapiens, NCI-N87, 72 h): 1.7 ± 0.2 nM
IC50 (Ba/F3 cells HER2 S310F; Mus musculus, BaF3, 72 h): 14.1 ± 20.6 nM
IC50 (SKBR3; Homo sapiens, SK-BR-3, 72 h): 117 ± 105 nM
IC50 ([10]; Mus musculus, BaF3, 72 h): 2.75 ± 2.89 nM
IC50 (Ba/F3 cells HER2 L755S; Mus musculus, BaF3, 72 h): 83.2 ± 35.7 nM
IC50 (H1819): 29.5 ± 19.5 nM
IC50 (Ba/F3 cells HER2 V862I; Mus musculus, BaF3, 72 h): 22.1 ± 10.9 nM
IC50 ([12]; Mus musculus, BaF3, 72 h): 5.17 ± 2.32 nM
IC50 ([14]; Mus musculus, BaF3, 72 h): 2.96 ± 1.29 nM
IC50 (Calu-3 [19]): 162 ± 110 nM
IC50 ([17]; Mus musculus, BaF3, 72 h): 1.79 ± 1.39 nM
IC50 ([18]; Mus musculus, BaF3, 72 h): 6.89 ± 6.66 nM
Compound: CN(C)C/C=C/C(=O)Nc1cc2c(Nc3ccc(F)c(Cl)c3)ncnc2cc1O[C@H]1CCOC1 [afatinib]

Compound: COc1cc2ncnc(Nc3ccc(F)c(Cl)c3)c2cc1NC(=O)/C=C/CN1CCCCC1 [dacomitinib]
overall response rate (HER2 mutant lung cancer): 12%
